According to patent publication US11453689B2, “3-pyrrolidine-indole derivatives as serotonergic psychedelic agents for the treatment of CNS disorders” (Mindset Pharma Inc., priority 2020, dated 2022):

System: head-twitch response (HTR) in male C57BL6 mice
Experiment: Mouse head-twitch response (HTR)
Type: in vivo
Conditions: M100907 0.5 mg/kg IP before I-2 10 mg/kg SC
Experimental: Male, C57BL/6J mice (body weight range 20-30 g) were dosed with the appropriate dose of test article, and following a 1-minute pre-treatment time, placed in individual observation chambers. Animals were visually assessed for the incidence head twitches continuously over a 1 hr period. Head twitches were defined as a rapid jerk of the head which was not elicited by an external tactile stimulus (Come and Pickering, Psychopharmacologia, 1967, 11(1): 65-78). Each head twitch was individually counted by a trained observer, and the data expressed as the mean±SEM of 6-10 mice per group. Mice were used in a single experiment only.
The effect of various doses of exemplary compound of Formula I, I-2, on head-twitch response (HTR) in male C57BL6 mice were measured. The mice were treated with compound I-2 (0.03-10 mg/kg, SC) by SC route (N=6 mice/dose), and the total number of head twitches were recorded over a 1h period. Data is expressed as mean±SEM. The induction of head twitches elicited by 5-HT2A receptor agonists is believed to represent a behavioural proxy of their psychedelic effects.
To evaluate the involvement of 5-HT2A receptor on the HTR induced by exemplary compounds of Formula I, mice were pretreated with the selective 5-HT2AR antagonist M100907 (also known as volinanserin) prior to the administration of exemplary compounds of Formula I, for example, 1-2 (10 mg/kg SC).

SMILES: [2H]C([2H])([2H])N1CCC[C@@H]1Cc1c[nH]c2cccc(O)c12 [Compound I-2, (R)-3-((1-(methyl-d3)pyrrolidin-2-yl)methyl)-1H-indol-4-ol]
- effect of I-2 on HTR after pretreatment with 5-HT2A antagonist M100907: completely blocked
